Literature values, collected in patent EP1085805B1, “USE OF AT LEAST ONE ACID FROM THE CITRIC ACID CYCLE COMBINED WITH GLYCERINE AS A PESTICIDE” (Biolink Technologies AG, priority 1998, dated 1999).

Q: With ClC1=C(Cl)[C@]2(Cl)[C@@H]3[C@@H]4C[C@@H]([C@H]5O[C@@H]45)[C@@H]3[C@@]1(Cl)C2(Cl)Cl [Dieldrin] as the compound, how does the “LD50 Wert Ratte oral” value read?
A: 56 mg/kg Körpergewicht

Q: Which “LD50 Wert Ratte oral” value does the source give for Cl[C@H]1[C@H](Cl)[C@@H](Cl)[C@@H](Cl)[C@H](Cl)[C@H]1Cl [Lindan] here?
A: 88 mg/kg Körpergewicht
